Holding throughout (type): cell-based
The target in test [1] is T1, Nuclear factor NF-kappa-B complex (Homo sapiens) (UniProt Q00653+P19838+Q04206). The test can be described thus: Inhibition of LPS-induced NF-kappaB (unknown origin) expressed in HEK293 cells at 100 ug/ml after 4 hrs by luciferase reporter gene assay relative to LPS-treated control.
The target of test [2] is T1, Nuclear factor NF-kappa-B complex (Homo sapiens). Put plainly: Inhibition of LPS-induced NF-kappaB (unknown origin) expressed in HEK293 cells at 1 ug/ml after 4 hrs by luciferase reporter gene assay relative to LPS-treated control. (In general: Reporter assays use an easily measured gene product as a stand-in for the process of interest.)
The target is the same in test [3]. Put plainly: Inhibition of LPS-induced NF-kappaB (unknown origin) expressed in HEK293 cells at 10 ug/ml after 4 hrs by luciferase reporter gene assay relative to LPS-treated control.

Ratio data for 3 compounds are collected here from ChEMBL document CHEMBL3351801, “Phragmalin-type limonoids with NF-κB inhibition from Chukrasia tabularis var. velutina” (Bioorg Med Chem Lett, 2014).

T1 sequence (P19838 whole entry, looked up): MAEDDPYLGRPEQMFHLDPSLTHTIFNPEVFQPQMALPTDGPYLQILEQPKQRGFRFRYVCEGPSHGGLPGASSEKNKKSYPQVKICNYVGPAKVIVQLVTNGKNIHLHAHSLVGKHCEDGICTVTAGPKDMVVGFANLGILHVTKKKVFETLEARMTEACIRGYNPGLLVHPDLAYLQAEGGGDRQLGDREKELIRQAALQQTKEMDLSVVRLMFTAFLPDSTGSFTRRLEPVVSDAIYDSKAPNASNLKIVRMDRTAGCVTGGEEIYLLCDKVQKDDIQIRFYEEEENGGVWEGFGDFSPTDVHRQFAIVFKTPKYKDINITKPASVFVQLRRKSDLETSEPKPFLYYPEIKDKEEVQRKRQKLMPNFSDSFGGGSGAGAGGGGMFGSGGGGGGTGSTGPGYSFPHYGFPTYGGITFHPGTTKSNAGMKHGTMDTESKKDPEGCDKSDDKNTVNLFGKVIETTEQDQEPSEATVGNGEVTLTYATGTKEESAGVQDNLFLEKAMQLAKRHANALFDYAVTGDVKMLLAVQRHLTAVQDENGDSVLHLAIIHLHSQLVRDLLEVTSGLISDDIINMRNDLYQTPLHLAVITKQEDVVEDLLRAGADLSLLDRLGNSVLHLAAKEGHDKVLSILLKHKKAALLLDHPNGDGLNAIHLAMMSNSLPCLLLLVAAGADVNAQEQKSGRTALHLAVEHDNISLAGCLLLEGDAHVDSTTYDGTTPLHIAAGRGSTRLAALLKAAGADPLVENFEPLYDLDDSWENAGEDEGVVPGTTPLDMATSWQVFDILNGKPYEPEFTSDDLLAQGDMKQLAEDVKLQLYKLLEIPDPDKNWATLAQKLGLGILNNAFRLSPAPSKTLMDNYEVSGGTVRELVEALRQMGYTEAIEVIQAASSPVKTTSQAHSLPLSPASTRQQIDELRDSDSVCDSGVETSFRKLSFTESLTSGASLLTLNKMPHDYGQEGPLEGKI
T1 sequence (Q00653 whole entry, looked up): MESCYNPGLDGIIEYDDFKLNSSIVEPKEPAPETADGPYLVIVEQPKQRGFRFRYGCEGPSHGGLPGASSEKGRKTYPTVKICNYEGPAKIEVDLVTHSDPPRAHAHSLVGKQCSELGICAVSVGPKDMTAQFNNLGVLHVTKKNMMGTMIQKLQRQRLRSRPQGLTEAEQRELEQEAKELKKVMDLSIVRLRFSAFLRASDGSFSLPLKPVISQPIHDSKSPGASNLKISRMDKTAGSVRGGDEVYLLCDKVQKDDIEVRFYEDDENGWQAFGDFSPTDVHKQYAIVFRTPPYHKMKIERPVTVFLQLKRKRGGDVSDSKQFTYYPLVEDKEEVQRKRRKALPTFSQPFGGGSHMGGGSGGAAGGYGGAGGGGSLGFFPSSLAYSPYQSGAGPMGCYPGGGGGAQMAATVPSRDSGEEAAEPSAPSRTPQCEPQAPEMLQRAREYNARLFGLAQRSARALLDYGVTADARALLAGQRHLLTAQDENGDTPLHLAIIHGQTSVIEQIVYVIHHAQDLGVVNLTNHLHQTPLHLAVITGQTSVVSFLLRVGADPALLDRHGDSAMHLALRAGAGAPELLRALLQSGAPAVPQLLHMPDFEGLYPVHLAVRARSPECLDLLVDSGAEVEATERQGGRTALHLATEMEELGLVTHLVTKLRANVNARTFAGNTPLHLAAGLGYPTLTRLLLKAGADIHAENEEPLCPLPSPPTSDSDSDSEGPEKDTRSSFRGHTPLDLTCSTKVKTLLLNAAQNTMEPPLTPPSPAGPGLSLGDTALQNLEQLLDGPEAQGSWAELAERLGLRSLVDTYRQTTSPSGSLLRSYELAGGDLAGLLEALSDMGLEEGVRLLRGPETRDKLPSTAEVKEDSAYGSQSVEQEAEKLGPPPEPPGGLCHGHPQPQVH
T1 sequence (Q04206 whole entry, looked up): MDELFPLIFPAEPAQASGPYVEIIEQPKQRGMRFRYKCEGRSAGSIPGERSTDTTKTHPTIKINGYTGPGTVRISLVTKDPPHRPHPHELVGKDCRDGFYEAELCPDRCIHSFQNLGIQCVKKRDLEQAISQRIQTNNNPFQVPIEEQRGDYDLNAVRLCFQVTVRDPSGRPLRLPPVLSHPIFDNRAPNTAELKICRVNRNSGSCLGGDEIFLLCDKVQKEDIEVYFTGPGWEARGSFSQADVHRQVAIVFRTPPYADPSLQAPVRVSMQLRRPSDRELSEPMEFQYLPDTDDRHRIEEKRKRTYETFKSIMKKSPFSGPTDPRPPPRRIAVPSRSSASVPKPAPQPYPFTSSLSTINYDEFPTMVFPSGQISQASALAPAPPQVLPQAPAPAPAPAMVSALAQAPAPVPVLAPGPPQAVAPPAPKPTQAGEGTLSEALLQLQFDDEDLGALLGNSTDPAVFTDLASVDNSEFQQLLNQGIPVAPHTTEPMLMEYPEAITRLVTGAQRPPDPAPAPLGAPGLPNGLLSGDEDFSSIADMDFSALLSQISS

For the compound `COC(=O)C[C@H]1[C@]2(C)C[C@]3(O)[C@@](O)([C@H]4OC(C)=C[C@@H]5[C@](C)([C@@H](OC(C)=O)c6ccoc6)[C@@H](OC(C)=O)[C@@H](OC(C)=O)[C@]6(OC(=O)O[C@]546)[C@]13C)[C@H]2O`, the values for the Ratio in test [1], in test [2] and in test [3] were 0.86, 0.69 and 0.57, respectively.

As to `CCC1=C[C@@H]2[C@](C)([C@@H](OC(C)=O)c3ccoc3)[C@@H](OC(C)=O)[C@@H](OC(C)=O)[C@@]34OC(=O)O[C@@]23[C@H](O1)[C@@]1(O)[C@@H](O)[C@@]2(C)C[C@@]1(O)[C@@]4(C)[C@H]2CC(=O)OC`, the results for the Ratio in test [1], in test [2] and in test [3] were 0.26, 0.16 and 0.14, respectively.

Consider `COC(=O)C[C@H]1[C@]2(C)C[C@]3(O)[C@@](OC(C)=O)([C@H]4OC5(C)C[C@@H]6[C@](C)([C@@H](OC(C)=O)c7ccoc7)[C@@H](OC(C)=O)[C@@H](OC(C)=O)[C@@](O)([C@@]64O5)[C@]13C)[C@H]2OC(C)=O`, for which the Ratio in test [1] was 0.32; in test [2], 0.21; in test [3] it was 0.33.
